# Test results as given in the NIST ThermoML archive (doi:10.1021/je060271a).
# “And” between values parts separate entries of the source, which are not always exact repeats. Identical values can stand only once. ± gives the expanded uncertainty stated by the source.
# Conditions: 283.15 K, Liquid, Vibrating tube method
structure (smiles),measurement,setting,value
CCCCCCCC(=O)OCC(COC(=O)CCCCCCC)(COC(=O)CCCCCCC)COC(=O)CCCCCCC [pentaerythritol tetraoctanoate],mass density,105.3 kPa,970.3 ± 1.2 kg/m3
same,mass density,105.5 kPa,970.3 ± 1.2 kg/m3 and 970.4 ± 1.2 kg/m3
same,mass density,105.6 kPa,970.3 ± 1.2 kg/m3
same,mass density,105.8 kPa,970.4 ± 1.2 kg/m3
same,mass density,106.7 kPa,970.3 ± 1.2 kg/m3
same,mass density,110 kPa,970.3 ± 1.2 kg/m3
same,mass density,125.3 kPa,970.3 ± 1.2 kg/m3
same,mass density,155.9 kPa,970.3 ± 1.2 kg/m3
same,mass density,203.3 kPa,970.4 ± 1.2 kg/m3
same,mass density,224.9 kPa,970.3 ± 1.2 kg/m3
same,mass density,235.2 kPa,970.4 ± 1.2 kg/m3
same,mass density,246.6 kPa,970.5 ± 1.2 kg/m3
same,mass density,262.8 kPa,970.4 ± 1.2 kg/m3
same,mass density,277.9 kPa,970.4 ± 1.2 kg/m3
same,mass density,295.3 kPa,970.4 ± 1.2 kg/m3
same,mass density,319.3 kPa,970.4 ± 1.2 kg/m3
same,mass density,342 kPa,970.5 ± 1.2 kg/m3
same,mass density,369 kPa,970.5 ± 1.2 kg/m3
same,mass density,405 kPa,970.4 ± 1.2 kg/m3
same,mass density,438.1 kPa,970.4 ± 1.2 kg/m3
same,mass density,468.4 kPa,970.6 ± 1.2 kg/m3
same,mass density,495.5 kPa,970.6 ± 1.2 kg/m3
same,mass density,514.6 kPa,970.6 ± 1.2 kg/m3
same,mass density,534.1 kPa,970.6 ± 1.2 kg/m3
same,mass density,557.4 kPa,970.6 ± 1.2 kg/m3
same,mass density,575.1 kPa,970.6 ± 1.2 kg/m3
same,mass density,593.5 kPa,970.7 ± 1.2 kg/m3
same,mass density,616.6 kPa,970.7 ± 1.2 kg/m3
same,mass density,636.3 kPa,970.5 ± 1.2 kg/m3
same,mass density,653.5 kPa,970.7 ± 1.2 kg/m3
same,mass density,671.5 kPa,970.7 ± 1.2 kg/m3
same,mass density,693.4 kPa,970.7 ± 1.2 kg/m3
same,mass density,713.6 kPa,970.7 ± 1.2 kg/m3
same,mass density,734.1 kPa,970.7 ± 1.2 kg/m3
same,mass density,760.8 kPa,970.8 ± 1.2 kg/m3
same,mass density,784.3 kPa,970.7 ± 1.2 kg/m3
same,mass density,808.6 kPa,970.7 ± 1.2 kg/m3
same,mass density,834.5 kPa,970.7 ± 1.2 kg/m3
same,mass density,866.8 kPa,970.7 ± 1.2 kg/m3
same,mass density,896 kPa,970.7 ± 1.2 kg/m3
same,mass density,926.4 kPa,970.8 ± 1.2 kg/m3
same,mass density,962 kPa,970.8 ± 1.2 kg/m3
same,mass density,986 kPa,970.9 ± 1.2 kg/m3
same,mass density,1010.4 kPa,970.9 ± 1.2 kg/m3
same,mass density,1035.5 kPa,970.8 ± 1.2 kg/m3
same,mass density,1066.4 kPa,970.9 ± 1.2 kg/m3
same,mass density,1094 kPa,970.9 ± 1.2 kg/m3
same,mass density,1122.1 kPa,970.9 ± 1.2 kg/m3
same,mass density,1158.4 kPa,971 ± 1.2 kg/m3
same,mass density,1189.3 kPa,971 ± 1.2 kg/m3
same,mass density,1219.2 kPa,971 ± 1.2 kg/m3
same,mass density,1247.3 kPa,971 ± 1.2 kg/m3
same,mass density,1270.1 kPa,971 ± 1.2 kg/m3
same,mass density,1293 kPa,971 ± 1.2 kg/m3
same,mass density,1317.3 kPa,971 ± 1.2 kg/m3
same,mass density,1349.3 kPa,971.1 ± 1.2 kg/m3
same,mass density,1370.1 kPa,971 ± 1.2 kg/m3
same,mass density,1401.5 kPa,971 ± 1.2 kg/m3
same,mass density,1428.9 kPa,971 ± 1.2 kg/m3
same,mass density,1457.4 kPa,971 ± 1.2 kg/m3
same,mass density,1492.1 kPa,971.2 ± 1.2 kg/m3
same,mass density,1522.7 kPa,971.1 ± 1.2 kg/m3
same,mass density,1554.3 kPa,971.1 ± 1.2 kg/m3
same,mass density,1587.1 kPa,971.2 ± 1.2 kg/m3
same,mass density,1627.7 kPa,971.1 ± 1.2 kg/m3
same,mass density,1662.8 kPa,971.2 ± 1.2 kg/m3
same,mass density,1700.3 kPa,971.2 ± 1.2 kg/m3
same,mass density,1747.1 kPa,971.3 ± 1.2 kg/m3
same,mass density,1789.7 kPa,971.2 ± 1.2 kg/m3
same,mass density,1830.4 kPa,971.3 ± 1.2 kg/m3
same,mass density,1873.1 kPa,971.3 ± 1.2 kg/m3
same,mass density,1917.2 kPa,971.4 ± 1.2 kg/m3
same,mass density,1972.4 kPa,971.4 ± 1.2 kg/m3
same,mass density,2020.6 kPa,971.4 ± 1.2 kg/m3
same,mass density,2068.2 kPa,971.4 ± 1.2 kg/m3
same,mass density,2110.9 kPa,971.5 ± 1.2 kg/m3
same,mass density,2137.9 kPa,971.4 ± 1.2 kg/m3
same,mass density,2158.6 kPa,971.5 ± 1.2 kg/m3
same,mass density,2179.8 kPa,971.5 ± 1.2 kg/m3
same,mass density,2205.6 kPa,971.5 ± 1.2 kg/m3
same,mass density,2227.8 kPa,971.7 ± 1.2 kg/m3
same,mass density,2250.5 kPa,971.5 ± 1.2 kg/m3
same,mass density,2273.6 kPa,971.6 ± 1.2 kg/m3
same,mass density,2301.4 kPa,971.6 ± 1.2 kg/m3
same,mass density,2325.3 kPa,971.7 ± 1.2 kg/m3
same,mass density,2348.9 kPa,971.5 ± 1.2 kg/m3
same,mass density,2373 kPa,971.7 ± 1.2 kg/m3
same,mass density,2403 kPa,971.7 ± 1.2 kg/m3
same,mass density,2427.5 kPa,971.6 ± 1.2 kg/m3
same,mass density,2457.8 kPa,971.7 ± 1.2 kg/m3
same,mass density,2484 kPa,971.6 ± 1.2 kg/m3
same,mass density,2510.7 kPa,971.8 ± 1.2 kg/m3
same,mass density,2543.2 kPa,971.8 ± 1.2 kg/m3
same,mass density,2571.1 kPa,971.7 ± 1.2 kg/m3
same,mass density,2600.6 kPa,971.7 ± 1.2 kg/m3
same,mass density,2629 kPa,971.8 ± 1.2 kg/m3
same,mass density,2663.7 kPa,971.7 ± 1.2 kg/m3
same,mass density,2693.4 kPa,971.8 ± 1.2 kg/m3
same,mass density,2723.9 kPa,971.8 ± 1.2 kg/m3
same,mass density,2760.8 kPa,971.9 ± 1.2 kg/m3
same,mass density,2792.7 kPa,971.8 ± 1.2 kg/m3
same,mass density,2824.8 kPa,971.9 ± 1.2 kg/m3
same,mass density,2857.6 kPa,971.9 ± 1.2 kg/m3
same,mass density,2897.6 kPa,971.9 ± 1.2 kg/m3
same,mass density,2931.4 kPa,971.9 ± 1.2 kg/m3
same,mass density,2966.3 kPa,972 ± 1.2 kg/m3
same,mass density,3008.8 kPa,972 ± 1.2 kg/m3
same,mass density,3045.9 kPa,972.1 ± 1.2 kg/m3
same,mass density,3082.4 kPa,972.1 ± 1.2 kg/m3
same,mass density,3127.9 kPa,971.9 ± 1.2 kg/m3
same,mass density,3166.3 kPa,972 ± 1.2 kg/m3
same,mass density,3205 kPa,972.1 ± 1.2 kg/m3
same,mass density,3245 kPa,972 ± 1.2 kg/m3
same,mass density,3285.9 kPa,972.1 ± 1.2 kg/m3
same,mass density,3335.9 kPa,972.2 ± 1.2 kg/m3
same,mass density,3377.6 kPa,972.1 ± 1.2 kg/m3
same,mass density,3420.8 kPa,972.2 ± 1.2 kg/m3
same,mass density,3473.3 kPa,972.3 ± 1.2 kg/m3
same,mass density,3517.6 kPa,972.2 ± 1.2 kg/m3
same,mass density,3564.3 kPa,972.3 ± 1.2 kg/m3
same,mass density,3620 kPa,972.3 ± 1.2 kg/m3
same,mass density,3667.5 kPa,972.3 ± 1.2 kg/m3
same,mass density,3715.9 kPa,972.5 ± 1.2 kg/m3
same,mass density,3763.5 kPa,972.5 ± 1.2 kg/m3
same,mass density,3809.1 kPa,972.5 ± 1.2 kg/m3
same,mass density,3824.1 kPa,972.4 ± 1.2 kg/m3
same,mass density,3841.3 kPa,972.6 ± 1.2 kg/m3
same,mass density,3855.7 kPa,972.5 ± 1.2 kg/m3
same,mass density,3869.7 kPa,972.6 ± 1.2 kg/m3
same,mass density,3883.9 kPa,972.5 ± 1.2 kg/m3
same,mass density,3899.8 kPa,972.5 ± 1.2 kg/m3
same,mass density,4015.4 kPa,972.5 ± 1.2 kg/m3
same,mass density,4176.4 kPa,972.7 ± 1.2 kg/m3
same,mass density,4313.4 kPa,972.7 ± 1.2 kg/m3
same,mass density,4335.2 kPa,972.8 ± 1.2 kg/m3
same,mass density,4353.7 kPa,972.9 ± 1.2 kg/m3
same,mass density,4372.3 kPa,972.8 ± 1.2 kg/m3
same,mass density,4391.7 kPa,972.7 ± 1.2 kg/m3
same,mass density,4414.3 kPa,972.8 ± 1.2 kg/m3
same,mass density,4433.6 kPa,972.8 ± 1.2 kg/m3
same,mass density,4453.1 kPa,972.8 ± 1.2 kg/m3
same,mass density,4475.4 kPa,972.8 ± 1.2 kg/m3
same,mass density,4475.5 kPa,972.8 ± 1.2 kg/m3
same,mass density,4478.4 kPa,972.9 ± 1.2 kg/m3
same,mass density,4490.5 kPa,972.9 ± 1.2 kg/m3
same,mass density,4492.3 kPa,972.8 ± 1.2 kg/m3
same,mass density,4499.1 kPa,972.9 ± 1.2 kg/m3
